Results published in US20100266712A1, “Prevention of Acute Kidney Injury” (Austin Health, priority 2007, published 2010).

Columns and labels:
[1] = test system: high-risk cardiac surgical patients undergoing cardiopulmonary bypass
Method: (§1) Body weight adjusted dose of study medication was achieved by infusion of 154 mEq/L of sodium bicarbonate (Pfizer, Bentley, WA, Australia) or sodium chloride (Astra Zeneca, North Ryde, NSW, Australia) diluted in 5% dextrose (Baxter, Sydney, NSW, Australia) and H2O at an infusion rate of 3 mL kg^−1 h^−1 for 1 hour immediately after the induction of anesthesia, prior to the first surgical incision followed by continuous infusion at an infusion rate of 1 mL kg^−1 n^−1 over 23 hours. Sodium bicarbonate or sodium chloride was administered at a dose of 0.45 mEq/kg body weight over 1 hour followed by continuous intravenous infusion of 0.15 mEq/kg/hr over 23 hours (total dose of 4 mEq/kg over 24 hours).
Additional secondary outcomes included changes in acid-base status, clinical outcomes such as need for renal replacement therapy, duration of ventilation, length of intensive care unit and hospital stay, and adverse events.
(§2) All data were analyzed according to the intention-to-treat principle. Continuous data were tested for normal distribution using histograms. Between-group comparisons for continuous data were performed with the use of the t test or the Mann-Whitney U test and for categorical data with the use of Fisher exact test or chi-square test where appropriate. All tests were 2-tailed and a P value <0.05 was taken to indicate statistical significance. Values were reported as means with standard error of the mean (SEM) and mean difference or odds ratio (OR) with 95% confidence interval (95% CI) estimate as appropriate.

[2] = test system: high-risk cardiac surgical patients undergoing cardiopulmonary bypass; remark: listed apart in the source
Method: A double-blind, randomised, placebo controlled trial of the effect of sodium bicarbonate on postoperative renal function and oxidative stress in subjects undergoing elective cardiopulmonary bypass surgery was conducted.
The Human Research Ethics Committee of the Austin Hospital approved the trial and the Therapeutic Goods Administration of the Australian Government, Department of Health and Ageing approved the use of sodium bicarbonate for this indication. Written informed consent was obtained from each patient. Patients were identified in surgical pre-admission clinics and on hospital wards. Patients who were enrolled were at high risk of post-operative AKI and were scheduled for elective cardiac surgery necessitating the use of CPB at a university tertiary referral hospital (Austin Hospital) and a co-located large private hospital (Warringal Hospital). Those considered at high risk for post-operative AKI, defined as fulfilling one or more pre-defined inclusion criteria and no exclusion criteria, were considered eligible. Patients at particular risk of post-bypass renal injury were defined as having at least one of the following: (a) age >70; (b) preoperative creatinine […]; (c) New York Heart Association symptom severity class 3 or 4; (d) valve surgery; (e) insulin dependent diabetes mellitus; or (f) redo surgery.
as §1
The hospital pharmacy clinical trials coordinator used a Microsoft Excel-based (Microsoft Corp. Redmond, Wash., USA) random number generator to create the randomization list using a permuted block strategy with blocks of six. Infusion bags were each delivered in separate shrink-wrapped black plastic bags that were identical in appearance. Allocation concealment to patients, anesthesiologists, cardiac surgeons, intensive care specialists, bedside nurses and investigators (multiple blind) was ensured by central randomization through the Department of Pharmacy at the Austin Hospital.
The primary study outcome measure was the number of patients who developed post-operative acute kidney injury. This was defined as an increase in plasma creatinine concentration greater than 0.5 mg/dL (44 μmol/L) or greater than 25% from baseline to peak value at any time within the first five post-operative days. This definition is identical to that used in a recent large randomized controlled trial of cardiac surgery-associated AKI.
The renal secondary outcomes for this study were changes in plasma creatinine concentration within the first five post-operative days and in urinary neutrophil gelatinase-associated lipocalin (NGAL) concentration within the first 24 hours post-operatively. Creatinine was sampled daily and NGAL was sampled prior to induction of anesthesia, at 6 hours and at 24 hours after commencement of CPB. Creatinine was measured using the modified Jaffé method and NGAL as recently described (Mishra et al, 2005).
All data were analyzed according to the intention-to-treat principle. Continuous data were tested for normal distribution using histograms. Between-group comparisons for continuous data were performed with the use of the t test or the Mann-Whitney U test and for categorical data with the use of Fisher exact test or chi-square test where appropriate.

[3] = test system: high-risk cardiac surgical patients undergoing cardiopulmonary bypass; remark: listed apart in the source
Method: as §1
Specific adverse events targeted for detection included the incidence of hypernatremia ([Na^+]>150 mEq/L), hypokalemia ([K^+]<3.5 mEq/L), alkalemia (pH>7.50), post-operative atrial fibrillation and other post-operative arrhythmias (supraventricular arrhythmias, ventricular tachycardia and ventricular fibrillation) during study treatment.
as §2

[4] = from before to 24 hours after commencement of study infusion, N = 50
[5] = sodium bicarbonate vs sodium chloride
[6] = sodium bicarbonate vs sodium chloride, P<0.001

In the case of `O=C([O-])O.[Na+]` [sodium bicarbonate], the “urine pH” value ([1]; 6 and 24 hours after commencement of study drug infusion, P<0.001 vs control, FIG. 1C) was “induced urinary alkalinization”, the “Length of stay in hospital, mean (SEM)” value ([1]; N = 50, P=0.60) was 10.4 (1.0) days and the “Length of ventilation, mean (SEM)” value ([1]; N = 50, P=0.83) was 1657 (299) min. For the same compound, the “Length of stay in intensive care unit, mean (SEM)” value ([1]; N = 50, P=0.96) was 73.8 (14.0) hrs, the Hospital deaths ([1]; N = 50, P>0.99) was 1 (2) no. (%) and the Renal replacement therapy ([1]; N = 50, P>0.99) was 2 (4) no. (%). For the same compound, the “Change in plasma base excess, mean (SEM)” value [1, 4] was 3.8 (0.5), the “Change in plasma bicarbonate, mean (SEM)” value [1, 4] was 3.7 (0.5) mEq/L and the “Change in plasma pH, mean (SEM)” value [1, 4] was 0.04 (0.01). The “Length of stay in hospital, Mean Difference” value [1, 5] was -0.8 days, the “Length of stay in intensive care unit, Mean Difference” value [1, 5] was -1.0 h and the “Length of ventilation, Mean Difference” value [1, 5] was -99 min. For the same compound, the “Change in plasma base excess, Mean Difference” value [1, 6] was 6.0, the “Change in plasma bicarbonate, Mean Difference” value [1, 6] was 5.2 mEq/L and the “Change in plasma pH, Mean Difference” value [1, 6] was 0.07. The “increase in urinary NGAL concentration” value ([2]; baseline to peak within first 24 hours post-operatively, compared to sodium chloride, P=0.009, FIG. 1B) was “attenuated”, the “relative increase in plasma creatinine” value ([2]; baseline to peak within first five post-operative days, mean ± SEM, P=0.01 vs sodium chloride) was 28.5±6.5% and the “absolute increase in plasma creatinine concentration” value ([2]; compared to sodium chloride patients, P=0.01, FIG. 1A) was “less”. The “patients with a plasma creatinine increase greater than 50% from baseline to peak value” ([2]; patients/N, control 15/50) was 8/50, the “patients who developed post-operative AKI” value ([2]; patients/N, plasma creatinine increase >0.5 mg/dL (44 μmol/L) or >25% from baseline to peak within first five post-operative days, 4 mEq/kg i.v. over 24 hours) was 16/50 and the “odds ratio for post-operative AKI” value ([2]; vs. sodium chloride control group (26/50), 95% CI 0.19-0.98, P=0.04) was 0.43. The “odds ratio for plasma creatinine increase greater than 50%” value ([2]; vs. sodium chloride control, 95% CI 0.17-1.17, P=0.10) was 0.44, the “absolute risk reduction for AKI” value ([2]; vs. sodium chloride control, 95% CI 1.1-39.0%) was 20% and the “patients with plasma sodium concentration >150 mEq/L (hypernatremia)” value ([3]; during study treatment, both groups) was “No patient”. For the same compound, the “patients with an episode of supraventricular tachycardia” value ([3]; during study treatment, of 50 patients) was “One”, the “patients with a pH level greater than 7.50 (alkalemia)” value ([3]; during study treatment, of 50 patients, P=0.24) was “three” and the “incidence of new-onset atrial fibrillation” value ([3]; during treatment, patients/N, control 4/50, P>0.99) was 5/50. The “patients with plasma potassium <3.5 mEq/L (hypokalemia)” value ([3]; patients/N, control 1/50, P=0.20) was 5/50.
